Data set [1] concerns the target T1, ATP-sensitive inward rectifier potassium channel 1 (Homo sapiens, UniProt P48048).
T1 sequence (P48048 whole entry): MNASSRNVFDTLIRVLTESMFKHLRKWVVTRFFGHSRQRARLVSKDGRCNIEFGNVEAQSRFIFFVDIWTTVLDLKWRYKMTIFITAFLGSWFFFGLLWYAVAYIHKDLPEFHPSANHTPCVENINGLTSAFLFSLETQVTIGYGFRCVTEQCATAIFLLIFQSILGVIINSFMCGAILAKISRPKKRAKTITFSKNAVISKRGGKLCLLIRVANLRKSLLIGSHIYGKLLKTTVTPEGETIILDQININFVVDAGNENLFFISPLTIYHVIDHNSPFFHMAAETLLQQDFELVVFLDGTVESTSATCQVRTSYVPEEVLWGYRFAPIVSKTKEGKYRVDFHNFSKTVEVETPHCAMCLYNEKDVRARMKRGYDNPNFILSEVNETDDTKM
Description: Inhibition of human ROMK expressed in T-REX-CHO cells incubated for 30 mins by thallium flux assay

Data set [2] concerns the target T2, hERG (KCNH2) (Homo sapiens, UniProt Q12809). The data set can be described thus: Inhibition of human ERG expressed in HEK293 cells at 1 uM incubated for 2 to 5 mins by Manual patch clamp assay relative to control. The class given is toxicity, cell-based. The following applies: HEK293 cells expressing hERG, time 2-5 min. A general note: The patch-clamp technique gives a direct electrical read-out from membranes.

The nature of data set [3]: Metabolic stability in human liver microsomes assessed as parent compound remaining at 10 uM measured after 10 mins in presence of NADPH and GSH by UPLC-MS/MS analysis. The class given is ADME, Microsome. As to conditions: read-out: Stability. (In general: Liver microsomes are a subcellular fraction often used to study metabolism.)
The nature of data set [4]: Metabolic stability in rat liver microsomes assessed as parent compound remaining at 10 uM measured after 10 mins in presence of NADPH and GSH by UPLC-MS/MS analysis. It is filed as ADME, Microsome. As to conditions: read-out: Stability.
For data set [5], the target named is T2, hERG (KCNH2). Description: Inhibition of human ERG expressed in HEK293 cells at 10 uM incubated for 2 to 5 mins by Manual patch clamp assay relative to control. The following applies: HEK293 cells expressing hERG, time 2-5 min. The class given is toxicity, cell-based.

T2 sequence (Q12809 whole entry): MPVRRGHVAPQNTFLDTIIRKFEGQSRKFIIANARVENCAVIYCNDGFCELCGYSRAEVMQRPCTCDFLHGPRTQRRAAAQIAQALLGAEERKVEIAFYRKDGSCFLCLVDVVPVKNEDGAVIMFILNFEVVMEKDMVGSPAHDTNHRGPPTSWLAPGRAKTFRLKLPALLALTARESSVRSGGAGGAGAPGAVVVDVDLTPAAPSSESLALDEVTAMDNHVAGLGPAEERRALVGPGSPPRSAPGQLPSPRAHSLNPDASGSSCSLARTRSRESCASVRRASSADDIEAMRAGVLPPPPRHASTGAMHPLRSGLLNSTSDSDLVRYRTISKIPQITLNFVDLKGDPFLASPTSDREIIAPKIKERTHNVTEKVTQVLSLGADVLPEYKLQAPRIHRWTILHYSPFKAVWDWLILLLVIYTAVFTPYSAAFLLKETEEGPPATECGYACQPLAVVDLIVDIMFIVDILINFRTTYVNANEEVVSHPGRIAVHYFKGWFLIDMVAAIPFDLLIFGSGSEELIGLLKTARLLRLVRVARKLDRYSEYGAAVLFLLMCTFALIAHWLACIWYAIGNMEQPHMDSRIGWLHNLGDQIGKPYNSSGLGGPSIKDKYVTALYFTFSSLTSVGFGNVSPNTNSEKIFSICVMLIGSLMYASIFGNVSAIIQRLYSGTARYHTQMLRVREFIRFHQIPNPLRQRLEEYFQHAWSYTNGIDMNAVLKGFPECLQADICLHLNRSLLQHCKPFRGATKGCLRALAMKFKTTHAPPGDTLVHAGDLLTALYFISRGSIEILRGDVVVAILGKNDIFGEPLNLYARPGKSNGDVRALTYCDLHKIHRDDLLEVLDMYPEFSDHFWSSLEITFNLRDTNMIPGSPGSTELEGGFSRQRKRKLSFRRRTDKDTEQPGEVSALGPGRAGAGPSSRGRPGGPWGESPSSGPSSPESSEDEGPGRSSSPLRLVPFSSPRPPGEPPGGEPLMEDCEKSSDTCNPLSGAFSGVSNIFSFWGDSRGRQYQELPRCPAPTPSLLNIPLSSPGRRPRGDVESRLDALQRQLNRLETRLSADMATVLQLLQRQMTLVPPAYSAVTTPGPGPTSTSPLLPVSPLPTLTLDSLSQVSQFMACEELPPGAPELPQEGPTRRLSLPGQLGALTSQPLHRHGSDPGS

One may read the IC50 as the concentration at which inhibition is half-maximal. Low readings indicate greater potency in that assay, high ones weaker potency in that assay. The term inhibition denotes the relative decrease from the control value, in per cent. Read a low inhibition as a weak effect. For the compound `N#Cc1ccc(-c2ncc3c(n2)CCN(C[C@H](O)c2ccc4c(c2)COC4=O)C3)cc1F`, the IC50 in data set [1] came out at 0.074 µM. The compound also registered an inhibition at 1 µM against hERG (KCNH2) [2] of 50%. The results for the remaining at 10 min, 10 µM in data set [3] and in data set [4] were 73% and 44%, respectively.

Regarding `Cc1cc(-n2cc(CNC[C@H](O)c3ccc4c(c3C)COC4=O)c(C(F)F)n2)ncc1C#N`, the remaining at 10 min, 10 µM in data set [3] is 18%; in data set [4], 1%. Besides, the inhibition at 10 µM against hERG (KCNH2) [5] was found to be 77%.

For `Cc1cc(-n2cc(CN3CCO[C@H](c4ccc5c(c4C)COC5=O)C3)cn2)ncc1C#N`, the inhibition at 1 µM against hERG (KCNH2) [2] worked out at 26%. Besides, the values for the remaining at 10 min, 10 µM in data set [3] and in data set [4] were 49% and 60%, respectively.

Regarding `Cc1cc(-n2cc(CN3CC(O)C(c4ccc5c(c4C)COC5=O)C3)cn2)ncc1C#N` (centres undefined), in data set [1], it took 0.03 µM to reach half-maximal inhibition (IC50). In addition, at 1 µM the inhibition against hERG (KCNH2) [2] was 58%. The remaining at 10 min, 10 µM was 100% in data set [3] and 84% in data set [4].

`Cc1cc(-c2ncc(CNC[C@H](O)c3ccc4c(c3C)COC4=O)s2)ncc1C#N`: the remaining at 10 min, 10 µM in data set [3] turned out to be 85%; in data set [4] it was 33%. At hERG (KCNH2) [5], the inhibition at 10 µM was 72%.

In turn, `Cc1cc(-n2cc(CN3C[C@@H](c4ccc5c(c4C)COC5=O)OC(C)(C)C3)cn2)ncc1C#N` registered an inhibition at 1 µM at hERG (KCNH2) [2] of 13%. For the same compound, the remaining at 10 min, 10 µM worked out at 44% in data set [3] and 56% in data set [4].

Take `N#Cc1ccc(-c2ccc3c(c2)CCN(C[C@H](O)c2ccc4c(c2)COC4=O)C3)cc1F`: in data set [1], the midpoint of inhibition, the IC50, lay at 0.032 µM. For the same compound, testing at 1 µM on hERG (KCNH2) [2] gave an inhibition of 97%.

Consider `Cc1cc(-n2ncc(CN3C[C@@H](c4ccc5c(c4C)COC5=O)NC(C)(C)C3)n2)ncc1C#N`, for which the remaining at 10 min, 10 µM in data set [3] worked out at 62%; in data set [4] it was 100%.

For the compound `Cc1cc(-c2ccc(CNC[C@H](O)c3ccc4c(c3C)COC4=O)cn2)ncc1C#N`, the remaining at 10 min, 10 µM in data set [3] stood at 90%; in data set [4], 46%. At 10 µM the inhibition at hERG (KCNH2) [5] was 71%.

`Cc1cc(-n2cc(CN3CCN[C@H](c4ccc5c(c4C)COC5=O)C3)cn2)ncc1C#N`: the remaining at 10 min, 10 µM in data set [3] was found to be 96%; in data set [4] it was 90%.

As for `Cc1cc(-n2ncc(CN3CCN[C@H](c4ccc5c(c4C)COC5=O)C3)n2)ncc1C#N`, the remaining at 10 min, 10 µM in data set [3] and in data set [4] was 100% each time.

With `Cc1cc(-n2cc(CNC[C@H](O)c3ccc4c(c3C)COC4=O)cn2)ncc1C#N`, the remaining at 10 min, 10 µM in data set [3] came out at 86%; in data set [4], 72%.

Consider `Cc1cc(-n2cnc(CNC[C@H](O)c3ccc4c(c3C)COC4=O)c2)ncc1C#N`, for which the IC50 in data set [1] came to 0.046 µM. Besides, the remaining at 10 min, 10 µM in data set [3] is 97%; in data set [4] it was 67%. Moreover, the inhibition at 10 µM at hERG (KCNH2) [5] is 72%.

`COc1c(CNC[C@H](O)c2ccc3c(c2C)COC3=O)cnn1-c1cc(C)c(C#N)cn1` gave an inhibition at 1 µM against hERG (KCNH2) [2] of 91%.

For the compound `Cc1c([C@@H](O)CNCc2ccc(-c3ccc(C#N)c(F)c3)nc2)ccc2c1COC2=O`, at 1 µM the inhibition against hERG (KCNH2) [2] was 66%. The results for the remaining at 10 min, 10 µM in data set [3] and in data set [4] were 75% and 51%, respectively.

On to `Cc1cc(-n2ccc(CNC[C@H](O)c3ccc4c(c3C)COC4=O)n2)ncc1C#N`, for which the midpoint of inhibition in data set [1], the IC50, lay at 0.43 µM. Besides, the remaining at 10 min, 10 µM in data set [3] turned out to be 12%; in data set [4] it was 1%. Also, the inhibition at 10 µM against hERG (KCNH2) [5] is 59%.

Turning to `Cc1cc(-n2cc(CN3CCCC(c4ccc5c(c4C)COC5=O)C3)cn2)ncc1C#N` (centres undefined), at 1 µM the inhibition against hERG (KCNH2) [2] was 75%. Besides, the remaining at 10 min, 10 µM in data set [3] was found to be 59%; in data set [4], 29%.

Regarding `Cc1cc(-n2cc(CN3CC(=O)N[C@H](c4ccc5c(c4C)COC5=O)C3)cn2)ncc1C#N`, the figures for the remaining at 10 min, 10 µM in data set [3] and in data set [4] were 64% and 67%, respectively. Also, at 10 µM the inhibition against hERG (KCNH2) [5] was 42%.

Compound `Cc1c([C@@H](O)CN(C)Cc2ccc(-c3ccc(C#N)c(F)c3)nc2)ccc2c1COC2=O` displayed an inhibition at 1 µM on hERG (KCNH2) [2] of 68%. Moreover, the results for the remaining at 10 min, 10 µM in data set [3] and in data set [4] were 40% and 7%, respectively.
